# Source: US20110105554A1, “MEANS FOR TREATING MYOSIN-RELATED DISEASES” (KINARIS BIOMEDICALS GMBH, priority 2007, published 2011)
# Assays:
# Dictyostelium myosin-1E = target: T1, Dictyostelium myosin-1E (Dictyostelium discoideum, UniProt Q03479); assay: Actin-activated ATPase activity (NADH-coupled assay), Dictyostelium myosin-1E; assay type: biochemical
# T1 construct: comprising amino acids 1-698, 1-765, and 1-839 respectively; made in house
# Method: Based on the structure of the myosin-2 motor domain with bound PBP, we performed molecular modeling studies to elucidate the specificity of PBP-binding to myosins from different classes. […] To test the predictions from the modeling studies, we determined actin-activated ATPase activities in the presence of 0 to 150 μM PBP with rabbit skeletal myosin-2 heavy meromyosin (HMM), myosin-5a isolated from chicken brain, and recombinant Dictyostelium myosin class-1, 2 and 5 motor-domain constructs (FIG. 9a). […] The concentrations of PBP required for half-maximal inhibition of the different myosin motors was calculated from fitting the data to hyperbolae. […] To determine the extend to which PBP impairs the coupling between the actin- and nucleotide-binding sites of myosin, we measured the ATP turn-over rates of Dictyostelium myosin-2 and myosin-5b motor domain constructs over the range from 0 to 50 μM F-actin in the absence and presence of 25 μM PBP.
# Protein preparation. Rabbit fast skeletal muscle heavy meromyosin (HMM) was prepared as described by Kron and Spudich^9. […]
# Steady-state kinetics. Basal and actin-activated Mg^2+-ATPase activities were measured with the NADH-coupled assay^19 in a buffer containing 25 mM HEPES, 25 mM KCl, and 4 mM MgCl2, 0.5 mM DTT at pH 7.0 in the presence of 1 mM ATP at 25° C. […]
# DdMyosin-5b = target: T2, DdMyosin-5b (Dictyostelium discoideum, UniProt P54697); assay: mantATP binding to DdMyosin-5b (stopped-flow)
# T2 construct: comprising amino acids 1-698, 1-765, and 1-839 respectively; made in house
# T2 sequence (P54697 1-839): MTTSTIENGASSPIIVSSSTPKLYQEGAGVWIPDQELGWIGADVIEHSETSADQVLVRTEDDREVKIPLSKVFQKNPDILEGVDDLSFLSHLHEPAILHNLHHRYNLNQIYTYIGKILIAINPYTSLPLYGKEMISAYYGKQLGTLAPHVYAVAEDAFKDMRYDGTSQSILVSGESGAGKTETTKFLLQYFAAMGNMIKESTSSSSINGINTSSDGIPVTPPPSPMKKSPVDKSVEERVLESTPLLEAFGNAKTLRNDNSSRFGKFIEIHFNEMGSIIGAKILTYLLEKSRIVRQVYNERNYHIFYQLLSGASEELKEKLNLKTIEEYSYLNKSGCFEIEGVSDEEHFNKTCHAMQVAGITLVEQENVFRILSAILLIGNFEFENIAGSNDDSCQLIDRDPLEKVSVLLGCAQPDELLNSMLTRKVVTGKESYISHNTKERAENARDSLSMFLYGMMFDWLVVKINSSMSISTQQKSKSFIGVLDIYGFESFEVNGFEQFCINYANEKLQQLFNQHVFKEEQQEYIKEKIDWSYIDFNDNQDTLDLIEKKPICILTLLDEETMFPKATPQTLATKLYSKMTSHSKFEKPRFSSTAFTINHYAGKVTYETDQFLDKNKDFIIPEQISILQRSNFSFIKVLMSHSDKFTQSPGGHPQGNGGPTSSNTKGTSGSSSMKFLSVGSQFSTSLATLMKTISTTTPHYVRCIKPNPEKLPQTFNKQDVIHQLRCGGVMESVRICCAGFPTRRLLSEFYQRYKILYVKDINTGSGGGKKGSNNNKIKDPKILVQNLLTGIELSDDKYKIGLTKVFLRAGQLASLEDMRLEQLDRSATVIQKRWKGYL
# Method: Effect of Pentabromopseudilin on ATP binding kinetics to DdMyosin-5b and acto-DdMyosin-5b. (FIG. 10a) Fluorescence transients obtained upon mixing 1 μM DdMyosin-5b with 10 μM mantATP in the absence and presence of 5 μM, 25 μM, 50 μM and 100 μM PBP. Mant-fluorescence was excited at 365 nm and detected after passing through a KV 389 nm cut-off filter. The fluorescent signal of mantATP binding to DdMyosin-5b in the absence of PBP follows a single exponential function (upper curve). The presence of increasing concentrations of PBP lead to reduced amplitudes of the fluorescent signals that are best fit by double exponentials. (FIG. 10b) Plot of the relative amplitudes of mantATP binding to Dd Myosin-5b at different PBP concentrations. […] (FIG. 10c) Fluorescence transients of the ATP induced dissociation of pyrene-acto-DdMyosin-5b in the absence (black curve) and presence (grey curve) of 50 μM PBP. (FIG. 10d) Quench-flow experiments of the ATP hydrolysis reaction upon mixing 5 μM M761 with 25 μM ATP in the absence (solid squares) and presence (open circles) of 50 μM PBP. […]
# The binding and hydrolysis of ATP and mantATP, respectively by myosin head fragments were analyzed in terms of the seven-step model described by Bagshaw and coworkers (4). Transients in the presence of actin were analyzed according to the mechanisms described in references 5 and 6.
# myosin-1E = myosin-1E (Dictyostelium discoideum, UniProt Q03479); assay: In vitro motility assay (actin filament sliding), myosin-1E; assay type: biochemical; details: data not shown
# Chain of myosin-1E (Q03479 whole entry, canonical isoform): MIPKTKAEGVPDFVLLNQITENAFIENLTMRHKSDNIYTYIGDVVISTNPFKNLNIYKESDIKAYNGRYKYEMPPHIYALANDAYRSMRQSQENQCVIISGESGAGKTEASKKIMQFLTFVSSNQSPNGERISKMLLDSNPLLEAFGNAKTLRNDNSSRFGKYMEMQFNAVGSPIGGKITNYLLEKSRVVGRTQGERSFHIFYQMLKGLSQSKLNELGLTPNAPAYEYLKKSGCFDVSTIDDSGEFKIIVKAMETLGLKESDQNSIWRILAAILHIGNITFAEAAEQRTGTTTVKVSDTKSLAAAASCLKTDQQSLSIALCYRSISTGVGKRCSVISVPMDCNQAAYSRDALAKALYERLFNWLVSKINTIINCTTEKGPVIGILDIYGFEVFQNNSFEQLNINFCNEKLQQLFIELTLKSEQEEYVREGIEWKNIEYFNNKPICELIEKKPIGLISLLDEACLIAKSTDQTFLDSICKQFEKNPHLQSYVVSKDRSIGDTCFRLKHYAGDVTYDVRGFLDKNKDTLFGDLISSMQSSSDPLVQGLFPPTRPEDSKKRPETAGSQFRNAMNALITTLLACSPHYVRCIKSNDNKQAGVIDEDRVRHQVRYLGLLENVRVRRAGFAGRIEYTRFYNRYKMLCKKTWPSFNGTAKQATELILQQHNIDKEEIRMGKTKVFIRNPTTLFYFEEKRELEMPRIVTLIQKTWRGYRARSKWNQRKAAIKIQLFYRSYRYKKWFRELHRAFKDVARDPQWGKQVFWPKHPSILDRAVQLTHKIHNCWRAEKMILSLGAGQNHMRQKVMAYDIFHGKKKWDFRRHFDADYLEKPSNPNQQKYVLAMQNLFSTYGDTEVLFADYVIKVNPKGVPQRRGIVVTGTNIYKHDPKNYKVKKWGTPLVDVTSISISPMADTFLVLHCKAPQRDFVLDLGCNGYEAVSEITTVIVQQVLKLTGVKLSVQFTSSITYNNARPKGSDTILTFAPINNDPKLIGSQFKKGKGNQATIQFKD
# Method: The extent and order of isoform-specific differences in the potency of the inhibitor were additionally confirmed by the results of in vitro motility assays). […] (FIG. 11a) Myosin-5a moves actin filaments with an average velocity of 0.6 μm/s±0.05 (dark bars); addition of 10 μM PBP into the same flow cell lead to a 46-fold reduction of the average sliding velocity to 0.013 μm/s±0.002 (light grey bars).
# Direct functional Assays. Actin-sliding motility was performed at 25° C. using an Olympus IX81 inverted fluorescence microscope. Experimental flow cells were constructed using bovine serum albumin (0.5 mg/ml in assay buffer)-coated glass slides and nitrocellulose-coated coverslips. Myosins were actin affinity-purified immediately before use, to remove rigor heads^20. Sliding movement was started by adding assay buffer containing 4 mM ATP, 10 mM DTT, 0.5 mg/ml bovine serum albumin, anti-fade solution, and 0.5% methylcellulose to the flow cell. Average sliding velocity was determined from the Gaussian distribution of automatically tracked actin filaments using DiaTrack 3.0 and Origin 7.0.
# T1 sequence (Q03479 1-698): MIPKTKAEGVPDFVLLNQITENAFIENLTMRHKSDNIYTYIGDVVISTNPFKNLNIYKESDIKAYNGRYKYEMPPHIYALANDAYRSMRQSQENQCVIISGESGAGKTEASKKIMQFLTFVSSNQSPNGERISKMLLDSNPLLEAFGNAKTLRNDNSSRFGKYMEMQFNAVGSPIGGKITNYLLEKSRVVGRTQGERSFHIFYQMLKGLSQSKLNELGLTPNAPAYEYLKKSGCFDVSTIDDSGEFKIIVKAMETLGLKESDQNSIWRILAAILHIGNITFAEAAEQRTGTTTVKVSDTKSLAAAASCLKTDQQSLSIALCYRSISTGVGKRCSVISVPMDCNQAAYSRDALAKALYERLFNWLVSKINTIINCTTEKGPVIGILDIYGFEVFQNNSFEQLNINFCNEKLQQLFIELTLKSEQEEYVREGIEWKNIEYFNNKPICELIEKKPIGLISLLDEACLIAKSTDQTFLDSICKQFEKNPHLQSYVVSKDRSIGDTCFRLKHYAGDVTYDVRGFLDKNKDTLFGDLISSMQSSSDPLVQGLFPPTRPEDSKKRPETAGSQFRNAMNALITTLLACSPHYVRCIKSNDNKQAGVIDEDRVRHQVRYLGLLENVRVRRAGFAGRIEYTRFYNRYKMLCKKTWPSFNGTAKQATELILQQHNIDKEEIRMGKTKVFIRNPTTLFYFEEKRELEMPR
structure (smiles),measurement,setting,value
Oc1c(Br)cc(Br)cc1-c1[nH]c(Br)c(Br)c1Br [KIN-43],Ki,Dictyostelium myosin-1E,49.5 µM
same,ATPase activity at 30 μM F-actin in the presence of inhibitor,"Dictyostelium myosin-1E; >100 μM PBP, 3.5 s^−1 without",0.10 s⁻¹
same,Kd,DdMyosin-5b,21 ± 2 µM
same,inhibition of actin filament sliding,myosin-1E,No significant inhibition
